Experimental data reported in patent US10604512B2, “3-(1H-indol-2-yl)-1H-indazoles and therapeutic uses thereof” (Samumed, LLC, priority 2015, dated 2020).

Tests used:
Type in all cases: cell-based
[1] = system: Primary human fibroblasts derived from IPF patients (LL29 cells) treated with TGF-β1; test: Inhibition of the fibrotic process: αSMA staining in TGF-β1-treated primary human fibroblasts from IPF patients (LL29 cells); conditions: Fibroblast, 96 h; for EC50: % αSMA-positive LL29 cells, TGF-β1 20 ng/mL, 4 days; for inhibition at 10 µM: given where EC50 >10 μM, αSMA, LL29 cells, TGF-β1, 4 days, read-out: percent inhibition at 10 μM
In short: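 LL29 IPF-patient fibroblasts in 1% FBS stimulated with TGF-β1 (20 ng/mL) and compound (10 μM–1.87 nM, 0.1% DMSO) for 4 days at 37 °C. SYTOX-positive cells excluded; % αSMA-positive cells imaged, normalized to TGF-β1/DMSO wells; EC50 by nonlinear regression, else % inhibition at 10 μM.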

IL-6 = test: Inhibition of IL-6 in LPS-stimulated THP-1 human monocyte cells (HTRF); conditions: for EC50: IL-6 inhibition, LPS-stimulated THP-1 cells, HTRF; for inhibition at 10 µM: THP-1, printed beside >10 μM EC50, top concentration 10 μM, meaning not given, read-out: percentage in parentheses after EC50 >10
In short: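 THP-1 cells serum-reduced (1% FBS, 24 h), then 5000 cells/well preincubated 2 h with compound (10-point 1:3 series from 10 μM, 0.1% DMSO) before 500 ng/mL LPS for 22 h at 37 °C. Secreted IL-6 quantified by HTRF 665/620 ratio; DMSO-normalised duplicates fitted to four-parameter EC50; above 10 μM, % inhibition at 10 μM given.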

SW480 colon cancer cells = test: Cell viability assay (CellTiter-Blue) in SW480 colon cancer cells; conditions: Homo sapiens, 96 h, four days; for inhibition at 10 µM: given where EC50 >10 μM, read-out: percent inhibition at 10 μM; for EC50: CellTiter-Blue
In short: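 SW480 colon cancer cells (~2×10^3/well) exposed to 8-point 1:3 dilutions from 10 μM to 0.0045 μM for four days at 37 °C/5% CO2. Viability read by resazurin (CellTiter-Blue) fluorescence after ~3 h, Ex 560/Em 590 nm. EC50 from non-linear regression; percent inhibition at 10 μM given when EC50 >10 μM.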

`O=C(Nc1cncc(-c2ccc3[nH]nc(-c4cc5c(N6CCCCC6)cccc5[nH]4)c3c2)c1)C1CC1` [Compound 188, N-(5-(3-(4-(Piperidin-1-yl)-1H-indol-2-yl)-1H-indazol-5-yl)pyridin-3-yl) cyclopropanecarboxamide] was tested, and the EC50 [1] was 5790 nM, the EC50 (IL-6) was 5370 nM and the inhibition at 10 µM (SW480 colon cancer cells) was 29.5%. It also gave an EC50 (SW480 colon cancer cells) greater than 10000 nM.
With `FC1(F)CCN(Cc2cncc(-c3ccc4[nH]nc(-c5cc6c(N7CCCCC7)cccc6[nH]5)c4c3)c2)C1` [Compound 194, 5-(5-((3,3-Difluoropyrrolidin-1-yl)methyl)pyridin-3-yl)-3-(4-(piperidin-1-yl)-1H-indol-2-yl)-1H-indazole] the EC50 [1] was 1310 nM, the EC50 (IL-6) was greater than 10000 nM and the inhibition at 10 µM (IL-6) was 29.2%. It also gave an EC50 (SW480 colon cancer cells) of 4430 nM.
For `CN1CCN(c2cccc3[nH]c(-c4n[nH]c5ccc(-c6cncc(N)c6)cc45)cc23)CC1` [Compound 227, 5-(3-(4-(4-Methylpiperazin-1-yl)-1H-indol-2-yl)-1H-indazol-5-yl)pyridin-3-amine], the EC50 [1] was 4000 nM, the EC50 (IL-6) was 1810 nM and the EC50 (SW480 colon cancer cells) was 2960 nM.
`CC(C)C(=O)Nc1cncc(-c2ccc3[nH]nc(-c4cc5c(N6CCN(C)CC6)cccc5[nH]4)c3c2)c1` [Compound 233, N-(5-(3-(4-(4-Methylpiperazin-1-yl)-1H-indol-2-yl)-1H-indazol-5-yl)pyridin-3-yl)isobutyramide] was tested, and the EC50 [1] was 1310 nM, the EC50 (IL-6) was 589 nM and the EC50 (SW480 colon cancer cells) was 3160 nM.
`CN1CCN(c2cccc3[nH]c(-c4n[nH]c5ccc(-c6cncc(CN7CCCCC7)c6)cc45)cc23)CC1` [Compound 239, 3-(4-(4-Methylpiperazin-1-yl)-1H-indol-2-yl)-5-(5-(piperidin-1-ylmethyl)pyridin-3-yl)-1H-indazole] showed an EC50 [1] greater than 10000 nM, an inhibition at 10 µM [1] of 21.1% and an EC50 (IL-6) of 1150 nM. The inhibition at 10 µM (SW480 colon cancer cells) was 51.7% and the EC50 (SW480 colon cancer cells) was greater than 10000 nM.
Molecule `CN1CCN(c2cccc3[nH]c(-c4n[nH]c5ccc(-c6cncc(NC(=O)C7CCCC7)c6)cc45)cc23)CC1` [Compound 246, N-(5-(3-(4-(4-Methylpiperazin-1-yl)-1H-indol-2-yl)-1H-indazol-5-yl)pyridin-3-yl)cyclopentanecarboxamide] has an EC50 [1] of 2560 nM, an EC50 (IL-6) of 186 nM and an EC50 (SW480 colon cancer cells) of 2990 nM.
Molecule `CN1CCN(c2cccc3[nH]c(-c4n[nH]c5ccc(-c6cncnc6)cc45)cc23)CC1` [Compound 251, 3-(4-(4-Methylpiperazin-1-yl)-1H-indol-2-yl)-5-(pyrimidin-5-yl)-1H-indazole] has an EC50 [1] of 3040 nM, an EC50 (IL-6) of 152 nM and an EC50 (SW480 colon cancer cells) of 3280 nM.
Work on `CCC(=O)Nc1cncc(-c2ccc3[nH]nc(-c4cc5ccccc5[nH]4)c3c2)c1` [Compound 253, N-(5-(3-(1H-Indol-2-yl)-1H-indazol-5-yl)pyridin-3-yl)propionamide] yielded an EC50 [1] of 2310 nM, an EC50 (IL-6) of 233 nM and an inhibition at 10 µM (SW480 colon cancer cells) of 13.6%. For the same molecule, the EC50 (SW480 colon cancer cells) was greater than 10000 nM.
With `c1cncc(-c2ccc3[nH]nc(-c4cc5ccccc5[nH]4)c3c2)c1` [Compound 256, 3-(1H-Indol-2-yl)-5-(pyridin-3-yl)-1H-indazole] the EC50 [1] was 9770 nM, the EC50 (IL-6) was 10 nM and the inhibition at 10 µM (SW480 colon cancer cells) was 4.7%. It also gave an EC50 (SW480 colon cancer cells) greater than 10000 nM.
For `CCNCc1cncc(-c2ccc3[nH]nc(-c4cc5ccccc5[nH]4)c3c2)c1` [Compound 258, N-((5-(3-(1H-Indol-2-yl)-1H-indazol-5-yl)pyridin-3-yl)methyl)ethanamine], the EC50 [1] was 235 nM, the EC50 (IL-6) was 161 nM and the EC50 (SW480 colon cancer cells) was 489 nM.
`O=C(Cc1ccccc1)Nc1cncc(-c2ccc3[nH]nc(-c4cc5ccccc5[nH]4)c3c2)c1` [Compound 262, N-(5-(3-(1H-Indol-2-yl)-1H-indazol-5-yl)pyridin-3-yl)-2-phenylacetamide] gave an EC50 [1] greater than 10000 nM, an inhibition at 10 µM [1] of 31.8% and an EC50 (IL-6) greater than 10000 nM. It also gave an inhibition at 10 µM (IL-6) of 0%, an inhibition at 10 µM (SW480 colon cancer cells) of 11.4% and an EC50 (SW480 colon cancer cells) greater than 10000 nM.
Molecule `O=C(Nc1cncc(-c2ccc3[nH]nc(-c4cc5ccccc5[nH]4)c3c2)c1)c1ccccc1` [Compound 263, N-(5-(3-(1H-Indol-2-yl)-1H-indazol-5-yl)pyridin-3-yl)benzamide] has an EC50 [1] of 1570 nM, an EC50 (IL-6) greater than 10000 nM and an inhibition at 10 µM (IL-6) of 0%. For the same molecule, the inhibition at 10 µM (SW480 colon cancer cells) was 2.9% and the EC50 (SW480 colon cancer cells) was greater than 10000 nM.
`c1ccc2[nH]c(-c3n[nH]c4ccc(-c5cncc(CN6CCCC6)c5)cc34)cc2c1` [Compound 266, 3-(1H-Indol-2-yl)-5-(5-(pyrrolidin-1-ylmethyl)pyridin-3-yl)-1H-indazole] gave an EC50 [1] of 563 nM, an EC50 (IL-6) of 233 nM and an EC50 (SW480 colon cancer cells) of 1040 nM.
For `c1ccc2[nH]c(-c3n[nH]c4ccc(-c5cncc(CN6CCCCC6)c5)cc34)cc2c1` [Compound 267, 3-(1H-Indol-2-yl)-5-(5-(piperidin-1-ylmethyl)pyridin-3-yl)-1H-indazole], the EC50 [1] was greater than 10000 nM, the inhibition at 10 µM [1] was 49.9% and the EC50 (IL-6) was 1730 nM. It also gave an inhibition at 10 µM (SW480 colon cancer cells) of 7.8% and an EC50 (SW480 colon cancer cells) greater than 10000 nM.
Work on `CC(C)(C)CC(=O)Nc1cncc(-c2ccc3[nH]nc(-c4cc5ccccc5[nH]4)c3c2)c1` [Compound 268, N-(5-(3-(1H-Indol-2-yl)-1H-indazol-5-yl)pyridin-3-yl)-3,3-dimethylbutanamide] yielded an EC50 [1] of 6890 nM, an EC50 (IL-6) greater than 10000 nM and an inhibition at 10 µM (IL-6) of 0%. It also gave an inhibition at 10 µM (SW480 colon cancer cells) of 12.4% and an EC50 (SW480 colon cancer cells) greater than 10000 nM.
With `O=C(Nc1cncc(-c2ccc3[nH]nc(-c4cc5ccccc5[nH]4)c3c2)c1)C1CCC1` [Compound 273, N-(5-(3-(1H-Indol-2-yl)-1H-indazol-5-yl)pyridin-3-yl) cyclobutanecarboxamide] the EC50 [1] was greater than 10000 nM, the inhibition at 10 µM [1] was 3.5% and the EC50 (IL-6) was greater than 10000 nM. It also gave an inhibition at 10 µM (IL-6) of 44.3%, an inhibition at 10 µM (SW480 colon cancer cells) of 17.8% and an EC50 (SW480 colon cancer cells) greater than 10000 nM.
In the case of `O=C(Nc1cncc(-c2ccc3[nH]nc(-c4cc5ccccc5[nH]4)c3c2)c1)C1CCCCC1` [Compound 275, N-(5-(3-(1H-Indol-2-yl)-1H-indazol-5-yl)pyridin-3-yl) cyclohexanecarboxamide], the EC50 [1] is reported as greater than 10000 nM, the inhibition at 10 µM [1] is reported as 43.7% and the EC50 (IL-6) is reported as greater than 10000 nM. For the same molecule, the inhibition at 10 µM (IL-6) was 32.5%, the inhibition at 10 µM (SW480 colon cancer cells) was 9.5% and the EC50 (SW480 colon cancer cells) was greater than 10000 nM.
`CC(C)CC(=O)Nc1cncc(-c2ccc3[nH]nc(-c4cc5c(-c6ccsc6)cccc5[nH]4)c3c2)c1` [Compound 282, 3-Methyl-N-(5-(3-(4-(thiophen-3-yl)-1H-indol-2-yl)-1H-indazol-5-yl)pyridin-3-yl)butanamide] gave an EC50 [1] greater than 10000 nM, an inhibition at 10 µM [1] of 34.9% and an EC50 (IL-6) of 977 nM. The EC50 (SW480 colon cancer cells) was 180 nM.
With `CC(C)C(=O)Nc1cncc(-c2ccc3[nH]nc(-c4cc5c(-c6ccsc6)cccc5[nH]4)c3c2)c1` [Compound 289, N-(5-(3-(4-(Thiophen-3-yl)-1H-indol-2-yl)-1H-indazol-5-yl)pyridin-3-yl) isobutyramide] the EC50 [1] was 8400 nM, the EC50 (IL-6) was greater than 10000 nM and the inhibition at 10 µM (IL-6) was 48.3%. The EC50 (SW480 colon cancer cells) was 375 nM.
For `c1ccc(-c2ccc3[nH]nc(-c4cc5c(-c6ccoc6)cccc5[nH]4)c3c2)nc1` [Compound 336, 3-(4-(Furan-3-yl)-1H-indol-2-yl)-5-(pyridin-2-yl)-1H-indazole], the EC50 [1] was greater than 10000 nM, the inhibition at 10 µM [1] was 0% and the EC50 (IL-6) was 90 nM. The EC50 (SW480 colon cancer cells) was 3100 nM.
`c1cncc(-c2ccc3[nH]nc(-c4cc5c(-c6cccs6)cccc5[nH]4)c3c2)c1` [Compound 340, 5-(Pyridin-3-yl)-3-(4-(thiophen-2-yl)-1H-indol-2-yl)-1H-indazole] was tested, and the EC50 [1] was greater than 10000 nM, the inhibition at 10 µM [1] was 38.3% and the EC50 (IL-6) was 18 nM. For the same molecule, the EC50 (SW480 colon cancer cells) was 371 nM.
With `CN(C)Cc1cncc(-c2ccc3[nH]nc(-c4cc5c(-c6cccs6)cccc5[nH]4)c3c2)c1` [Compound 349, N,N-Dimethyl-1-(5-(3-(4-(thiophen-2-yl)-1H-indol-2-yl)-1H-indazol-5-yl)pyridin-3-yl)methanamine] the EC50 [1] was 1150 nM, the EC50 (IL-6) was 233 nM and the EC50 (SW480 colon cancer cells) was 841 nM.
In the case of `c1csc(-c2cccc3[nH]c(-c4n[nH]c5ccc(-c6ccncc6)cc45)cc23)c1` [Compound 354, 5-(pyridin-4-yl)-3-(4-(thiophen-2-yl)-1H-indol-2-yl)-1H-indazole], the EC50 [1] is reported as greater than 10000 nM, the inhibition at 10 µM [1] is reported as 0% and the EC50 (IL-6) is reported as 150 nM. The EC50 (SW480 colon cancer cells) was 8930 nM.
For `CC(C)(C)C(=O)Nc1cncc(-c2ccc3[nH]nc(-c4cc5c(-c6cc(F)cc(CNS(C)(=O)=O)c6)cccc5[nH]4)c3c2)c1` [Compound 484, N-(5-(3-(4-(3-Fluoro-5-(methylsulfonamidomethyl)phenyl)-1H-indol-2-yl)-1H-indazol-5-yl)pyridin-3-yl)pivalamide], the EC50 [1] was greater than 10000 nM, the inhibition at 10 µM [1] was 25.5% and the EC50 (IL-6) was greater than 10000 nM. It also gave an inhibition at 10 µM (IL-6) of 24.2%, an inhibition at 10 µM (SW480 colon cancer cells) of 37.5% and an EC50 (SW480 colon cancer cells) greater than 10000 nM.
`CS(=O)(=O)NCc1cc(F)cc(-c2cccc3[nH]c(-c4n[nH]c5ccc(-c6ccncc6)cc45)cc23)c1` [Compound 494, N-(3-Fluoro-5-(2-(5-(pyridin-4-yl)-1H-indazol-3-yl)-1H-indol-4-yl)benzyl) methane sulfonamide] gave an EC50 [1] greater than 10000 nM, an inhibition at 10 µM [1] of 10.4% and an EC50 (IL-6) of 2330 nM. The inhibition at 10 µM (SW480 colon cancer cells) was 22.3% and the EC50 (SW480 colon cancer cells) was greater than 10000 nM.
